Source: patent US20120122860A1, “SOLID FORMS OF SULFONAMIDES AND AMINO ACIDS” (Plexxikon, Inc., priority 2009, published 2012)
pIC50: −log10 of the molar value.

Columns and labels:
[1] = biological target: B-Raf (Homo sapiens, UniProt P15056); assay: Kinase activity assay, B-Raf; assay type: biochemical; settings: read-out: activity toward kinase B-Raf, IC50
[2] = biological target: B-Raf V600E (Homo sapiens, UniProt P15056, V600E); assay: Kinase activity assay, B-Raf V600E; assay type: biochemical; settings: read-out: activity toward kinase B-Raf V600E, IC50
[3] = biological target: Kdr (Homo sapiens, UniProt P35968); assay: Kinase activity assay, Kdr
[4] = biological target: Kit (Homo sapiens, UniProt P10721); assay: Kinase activity assay, Kit
[5] = biological target: Src (Homo sapiens, UniProt P12931); assay: Kinase activity assay, Src
[6] = biological target: T1, TEC (Homo sapiens, UniProt P42680); assay: Kinase activity assay, TEC
T1 sequence (P42680 1-631): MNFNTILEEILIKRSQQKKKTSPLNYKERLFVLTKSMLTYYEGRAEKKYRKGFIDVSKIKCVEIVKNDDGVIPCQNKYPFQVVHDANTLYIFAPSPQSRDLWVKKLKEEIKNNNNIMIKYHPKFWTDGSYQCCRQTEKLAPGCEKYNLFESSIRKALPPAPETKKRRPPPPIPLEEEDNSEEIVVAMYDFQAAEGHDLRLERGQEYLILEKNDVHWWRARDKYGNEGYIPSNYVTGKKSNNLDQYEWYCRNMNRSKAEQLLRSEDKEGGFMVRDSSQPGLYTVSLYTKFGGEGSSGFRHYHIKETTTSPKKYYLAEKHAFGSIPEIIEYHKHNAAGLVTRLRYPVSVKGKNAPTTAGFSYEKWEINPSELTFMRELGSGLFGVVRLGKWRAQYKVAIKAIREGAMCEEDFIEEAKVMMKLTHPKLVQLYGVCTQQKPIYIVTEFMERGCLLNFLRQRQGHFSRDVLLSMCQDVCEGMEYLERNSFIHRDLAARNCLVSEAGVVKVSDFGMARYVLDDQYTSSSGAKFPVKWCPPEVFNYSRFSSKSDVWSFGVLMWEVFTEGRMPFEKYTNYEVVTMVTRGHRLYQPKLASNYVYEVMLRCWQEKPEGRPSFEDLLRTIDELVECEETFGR

[7] = biological target: C-Raf (Homo sapiens, UniProt P04049); assay: Kinase activity assay, C-Raf
[8] = biological target: Fms (Homo sapiens, UniProt P07333); assay: Kinase activity assay, Fms
[9] = biological target: T2, A-Raf (Homo sapiens, UniProt P10398); assay: Kinase activity assay, A-Raf
T2 sequence (P10398 1-606): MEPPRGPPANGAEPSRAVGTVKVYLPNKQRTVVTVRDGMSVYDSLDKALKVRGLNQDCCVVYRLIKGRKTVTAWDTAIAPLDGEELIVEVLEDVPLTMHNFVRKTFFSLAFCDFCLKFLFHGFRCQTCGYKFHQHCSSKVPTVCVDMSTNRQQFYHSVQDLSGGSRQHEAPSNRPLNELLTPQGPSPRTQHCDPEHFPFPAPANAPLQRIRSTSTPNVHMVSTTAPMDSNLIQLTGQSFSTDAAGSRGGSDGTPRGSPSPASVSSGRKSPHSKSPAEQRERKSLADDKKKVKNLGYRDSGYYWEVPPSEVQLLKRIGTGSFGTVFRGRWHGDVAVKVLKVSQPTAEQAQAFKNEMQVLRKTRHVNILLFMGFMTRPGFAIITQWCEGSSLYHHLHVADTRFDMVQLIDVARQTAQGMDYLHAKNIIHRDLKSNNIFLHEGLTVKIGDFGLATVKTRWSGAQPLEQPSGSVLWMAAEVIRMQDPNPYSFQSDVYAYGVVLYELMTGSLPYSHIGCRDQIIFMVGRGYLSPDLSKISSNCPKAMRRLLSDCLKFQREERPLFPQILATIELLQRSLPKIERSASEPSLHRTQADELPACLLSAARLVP

[10] = biological target: MAP4K4 (Homo sapiens, UniProt O95819); assay: Kinase activity assay, MAP4K4

Measured: pIC50

Kdr, sequence (P35968 20-1356): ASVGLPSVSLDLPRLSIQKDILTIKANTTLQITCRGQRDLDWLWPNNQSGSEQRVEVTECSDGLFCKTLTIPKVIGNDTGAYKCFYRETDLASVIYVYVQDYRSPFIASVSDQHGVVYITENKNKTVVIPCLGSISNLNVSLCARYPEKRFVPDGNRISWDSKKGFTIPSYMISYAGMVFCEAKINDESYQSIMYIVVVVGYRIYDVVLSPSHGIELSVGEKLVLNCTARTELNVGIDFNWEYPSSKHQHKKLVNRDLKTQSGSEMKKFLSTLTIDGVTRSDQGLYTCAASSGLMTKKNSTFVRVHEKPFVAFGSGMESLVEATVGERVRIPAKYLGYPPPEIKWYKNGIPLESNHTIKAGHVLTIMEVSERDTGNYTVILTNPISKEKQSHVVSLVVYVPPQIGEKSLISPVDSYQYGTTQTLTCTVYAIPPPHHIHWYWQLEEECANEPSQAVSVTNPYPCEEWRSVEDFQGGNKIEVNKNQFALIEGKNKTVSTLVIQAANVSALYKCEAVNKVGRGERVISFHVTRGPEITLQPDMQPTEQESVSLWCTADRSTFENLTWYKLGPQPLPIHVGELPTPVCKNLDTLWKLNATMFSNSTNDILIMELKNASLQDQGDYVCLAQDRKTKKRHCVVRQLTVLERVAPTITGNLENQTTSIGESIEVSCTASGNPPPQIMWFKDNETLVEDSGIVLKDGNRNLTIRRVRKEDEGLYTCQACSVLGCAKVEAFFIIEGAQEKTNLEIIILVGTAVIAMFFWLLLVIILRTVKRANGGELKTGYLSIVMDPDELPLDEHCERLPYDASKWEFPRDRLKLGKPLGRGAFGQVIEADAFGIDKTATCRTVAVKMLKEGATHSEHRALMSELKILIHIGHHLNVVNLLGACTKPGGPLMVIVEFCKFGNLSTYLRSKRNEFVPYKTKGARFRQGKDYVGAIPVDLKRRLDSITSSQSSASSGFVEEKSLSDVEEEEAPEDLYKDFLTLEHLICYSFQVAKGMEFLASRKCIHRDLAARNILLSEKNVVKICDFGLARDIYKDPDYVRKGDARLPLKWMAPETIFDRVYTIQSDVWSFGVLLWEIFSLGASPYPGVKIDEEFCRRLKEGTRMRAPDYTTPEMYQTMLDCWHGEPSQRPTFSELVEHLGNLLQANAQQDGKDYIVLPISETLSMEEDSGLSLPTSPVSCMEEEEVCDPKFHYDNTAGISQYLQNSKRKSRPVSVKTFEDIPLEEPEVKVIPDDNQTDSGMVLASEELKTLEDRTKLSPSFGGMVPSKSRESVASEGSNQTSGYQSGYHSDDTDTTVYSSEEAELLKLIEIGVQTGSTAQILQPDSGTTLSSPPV
Kit, sequence (P10721 26-976): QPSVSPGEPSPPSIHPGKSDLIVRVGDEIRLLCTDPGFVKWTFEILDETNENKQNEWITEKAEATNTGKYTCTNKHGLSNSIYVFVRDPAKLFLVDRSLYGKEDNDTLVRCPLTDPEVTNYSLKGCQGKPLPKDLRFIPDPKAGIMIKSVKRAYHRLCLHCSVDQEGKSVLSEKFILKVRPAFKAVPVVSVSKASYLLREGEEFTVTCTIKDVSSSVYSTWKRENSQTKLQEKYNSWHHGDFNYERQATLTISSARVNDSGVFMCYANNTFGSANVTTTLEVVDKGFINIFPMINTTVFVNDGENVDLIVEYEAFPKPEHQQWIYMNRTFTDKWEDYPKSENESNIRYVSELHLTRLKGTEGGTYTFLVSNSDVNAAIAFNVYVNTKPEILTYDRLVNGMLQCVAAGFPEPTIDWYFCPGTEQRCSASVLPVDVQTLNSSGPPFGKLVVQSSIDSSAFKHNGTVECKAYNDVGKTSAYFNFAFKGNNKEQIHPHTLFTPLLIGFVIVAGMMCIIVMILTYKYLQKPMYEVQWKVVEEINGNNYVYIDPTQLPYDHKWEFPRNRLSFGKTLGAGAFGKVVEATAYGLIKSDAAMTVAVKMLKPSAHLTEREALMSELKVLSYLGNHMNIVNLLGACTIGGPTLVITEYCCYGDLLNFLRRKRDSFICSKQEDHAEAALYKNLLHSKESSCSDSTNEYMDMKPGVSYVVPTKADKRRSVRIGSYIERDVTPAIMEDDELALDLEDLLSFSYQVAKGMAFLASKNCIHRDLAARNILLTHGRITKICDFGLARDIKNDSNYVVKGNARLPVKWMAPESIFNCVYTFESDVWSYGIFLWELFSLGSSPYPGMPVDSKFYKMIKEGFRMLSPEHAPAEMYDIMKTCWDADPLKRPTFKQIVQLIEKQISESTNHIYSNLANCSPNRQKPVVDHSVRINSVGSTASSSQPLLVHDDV
B-Raf, sequence (P15056 whole entry): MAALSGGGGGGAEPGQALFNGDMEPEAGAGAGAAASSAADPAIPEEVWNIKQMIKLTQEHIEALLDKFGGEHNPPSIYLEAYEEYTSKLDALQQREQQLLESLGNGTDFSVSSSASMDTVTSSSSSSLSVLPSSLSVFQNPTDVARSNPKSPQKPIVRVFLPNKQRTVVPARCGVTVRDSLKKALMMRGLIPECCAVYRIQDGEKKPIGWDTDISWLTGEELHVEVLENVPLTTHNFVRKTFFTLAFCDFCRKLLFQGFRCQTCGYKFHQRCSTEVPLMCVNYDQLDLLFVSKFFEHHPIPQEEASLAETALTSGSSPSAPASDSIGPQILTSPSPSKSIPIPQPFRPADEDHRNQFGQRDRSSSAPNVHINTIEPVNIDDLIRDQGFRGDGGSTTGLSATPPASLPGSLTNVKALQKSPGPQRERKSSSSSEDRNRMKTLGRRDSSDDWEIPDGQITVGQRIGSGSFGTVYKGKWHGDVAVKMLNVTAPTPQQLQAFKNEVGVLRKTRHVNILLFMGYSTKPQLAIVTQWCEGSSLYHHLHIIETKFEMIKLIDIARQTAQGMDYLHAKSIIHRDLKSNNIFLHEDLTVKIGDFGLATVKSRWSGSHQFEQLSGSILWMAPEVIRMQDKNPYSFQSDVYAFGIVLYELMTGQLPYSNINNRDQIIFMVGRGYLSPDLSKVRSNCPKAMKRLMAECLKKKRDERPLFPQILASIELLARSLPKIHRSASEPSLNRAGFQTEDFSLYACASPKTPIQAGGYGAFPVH
C-Raf, sequence (P04049 whole entry): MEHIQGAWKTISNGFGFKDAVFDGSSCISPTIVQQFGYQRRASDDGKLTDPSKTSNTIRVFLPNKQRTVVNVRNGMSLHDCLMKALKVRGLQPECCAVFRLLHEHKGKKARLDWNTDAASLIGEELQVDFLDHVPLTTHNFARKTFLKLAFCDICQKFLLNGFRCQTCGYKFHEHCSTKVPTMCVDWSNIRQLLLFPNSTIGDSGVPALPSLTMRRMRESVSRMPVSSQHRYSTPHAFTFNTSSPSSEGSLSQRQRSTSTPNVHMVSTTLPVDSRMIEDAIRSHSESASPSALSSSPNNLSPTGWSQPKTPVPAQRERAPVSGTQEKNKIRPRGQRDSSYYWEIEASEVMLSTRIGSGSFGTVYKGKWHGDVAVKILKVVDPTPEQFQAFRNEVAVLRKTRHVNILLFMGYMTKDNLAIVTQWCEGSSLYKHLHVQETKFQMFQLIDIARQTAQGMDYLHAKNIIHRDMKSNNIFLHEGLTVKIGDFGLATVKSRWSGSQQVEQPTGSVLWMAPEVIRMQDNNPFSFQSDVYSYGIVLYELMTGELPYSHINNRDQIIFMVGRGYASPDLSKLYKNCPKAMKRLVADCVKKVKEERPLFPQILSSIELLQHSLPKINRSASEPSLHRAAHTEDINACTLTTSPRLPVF
B-Raf V600E, sequence (P15056 whole entry V600E): as the sequence (P15056 whole entry) above, with V600E counted along it
Src, sequence (P12931 whole entry): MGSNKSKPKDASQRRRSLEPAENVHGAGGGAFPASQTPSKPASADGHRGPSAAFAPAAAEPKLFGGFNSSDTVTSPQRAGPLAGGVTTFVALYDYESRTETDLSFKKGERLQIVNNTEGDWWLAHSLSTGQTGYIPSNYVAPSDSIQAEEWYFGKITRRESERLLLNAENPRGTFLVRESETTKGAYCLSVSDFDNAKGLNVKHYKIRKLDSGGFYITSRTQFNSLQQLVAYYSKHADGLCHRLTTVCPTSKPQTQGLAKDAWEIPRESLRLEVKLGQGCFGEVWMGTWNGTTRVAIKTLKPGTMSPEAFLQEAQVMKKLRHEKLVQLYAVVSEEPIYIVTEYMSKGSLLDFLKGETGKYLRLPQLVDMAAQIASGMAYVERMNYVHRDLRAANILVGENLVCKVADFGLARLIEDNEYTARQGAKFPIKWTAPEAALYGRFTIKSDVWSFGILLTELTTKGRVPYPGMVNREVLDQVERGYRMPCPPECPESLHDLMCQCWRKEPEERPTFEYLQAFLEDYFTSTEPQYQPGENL

COc1ccnc2[nH]cc(C(=O)c3c(F)ccc(NS(=O)(=O)c4ccc(F)cc4)c3F)c12 [P-2027, N-[2,4-Difluoro-3-(4-methoxy-1H-pyrrolo[2,3-b]pyridine-3-carbonyl)-phenyl]-4-fluoro-benzenesulfonamide]
not listed: [8] | [9] | [10]
≥ 5.00: all other assays above

COc1ccnc2[nH]cc(C(=O)c3c(F)ccc(NS(=O)(=O)N(C)C)c3F)c12 [P-2376, N,N-dimethylamino-sulfonic acid [2,4-difluoro-3-(4-methoxy-1H-pyrrolo[2,3-b]pyridine-3-carbonyl)-phenyl]-amide]
≥ 5.00: [1] | [2] | [3] | [5] | [6] | [7]

N#Cc1cnc2[nH]cc(C(=O)c3c(F)ccc(NS(=O)(=O)C4CCCC4)c3F)c2c1 [P-2359, Cyclopentanesulfonic acid [3-(5-cyano-1H-pyrrolo[2,3-b]pyridine-3-carbonyl)-2,4-difluoro-phenyl]-amide]
not listed: [8] | [9] | [10]
≥ 5.00: all other assays above

COc1ccnc2[nH]cc(C(=O)c3c(F)ccc(NS(=O)(=O)CC(C)C)c3F)c12 [P-2306, 2-Methyl-propane-1-sulfonic acid [2,4-difluoro-3-(4-methoxy-1H-pyrrolo[2,3-b]pyridine-3-carbonyl)-phenyl]-amide]
≥ 5.00: [1] | [2] | [4] | [5] | [6] | [7]

N#Cc1cnc2[nH]cc(C(=O)c3c(F)ccc(NS(=O)(=O)c4cccnc4)c3F)c2c1 [P-2072, Pyridine-3-sulfonic acid [3-(5-cyano-1H-pyrrolo[2,3-b]pyridine-3-carbonyl)-2,4-difluoro-phenyl]-amide]
≥ 5.00: [1] | [2] | [6] | [7]

COc1ccnc2[nH]cc(C(=O)c3c(F)ccc(NS(=O)(=O)C4CCCCC4)c3F)c12 [P-2361, Cyclohexanesulfonic acid [2,4-difluoro-3-(4-methoxy-1H-pyrrolo[2,3-b]pyridine-3-carbonyl)-phenyl]-amide]
≥ 5.00: [1] | [2] | [4] | [5] | [6] | [7]

CCCS(=O)(=O)Nc1ccc(F)c(C(=O)c2c[nH]c3ncc(-c4ccccc4Cl)cc23)c1F [P-2212, Propane-1-sulfonic acid {3-[5-(2-chloro-phenyl)-1H-pyrrolo[2,3-b]pyridine-3-carbonyl]-2,4-difluoro-phenyl}-amide]
≥ 5.00: [1] | [2] | [8] | [3] | [6]

COc1ccnc2[nH]cc(C(=O)c3c(F)ccc(NS(=O)(=O)N4CCCC4)c3F)c12 [P-2377, Pyrrolidine-1-sulfonic acid [2,4-difluoro-3-(4-methoxy-1H-pyrrolo[2,3-b]pyridine-3-carbonyl)-phenyl]-amide]
≥ 5.00: [1] | [2] | [3] | [5] | [6] | [7]

CCC(C)S(=O)(=O)Nc1ccc(F)c(C(=O)c2c[nH]c3nccc(OC)c23)c1F (centres unmarked) [P-2313, Butane-2-sulfonic acid [2,4-difluoro-3-(4-methoxy-1H-pyrrolo[2,3-b]pyridine-3-carbonyl)-phenyl]-amide]
≥ 5.00: [1] | [2] | [3] | [5] | [6] | [7]

N#Cc1cnc2[nH]cc(C(=O)c3cccc(NS(=O)(=O)C4CCCC4)c3F)c2c1 [P-2417, Cyclopentanesulfonic acid [3-(5-cyano-1H-pyrrolo[2,3-b]pyridine-3-carbonyl)-2-fluoro-phenyl]-amide]
≥ 5.00: [1] | [2] | [3] | [6] | [7]

COc1ccnc2[nH]cc(C(=O)c3c(F)ccc(NS(=O)(=O)CCC(F)(F)F)c3F)c12 [P-2330, 3,3,3-Trifluoro-propane-1-sulfonic acid [2,4-difluoro-3-(4-methoxy-1H-pyrrolo[2,3-b]pyridine-3-carbonyl)-phenyl]-amide]
≥ 5.00: [1] | [2] | [5] | [6] | [7]

O=C(c1cc(NS(=O)(=O)C2CCCC2)ccc1F)c1c[nH]c2ncccc12 [P-2442, Cyclopentanesulfonic acid [4-fluoro-3-(1H-pyrrolo[2,3-b]pyridine-3-carbonyl)-phenyl]-amide]
≥ 5.00: [2] | [8] | [3] | [6]

CC(C)S(=O)(=O)Nc1ccc(F)c(C(=O)c2c[nH]c3ncc(C#N)cc23)c1F [P-2282, Propane-2-sulfonic acid [3-(5-cyano-1H-pyrrolo[2,3-b]pyridine-3-carbonyl)-2,4-difluoro-phenyl]-amide]
≥ 5.00: [1] | [2] | [4] | [6] | [7]

CCCS(=O)(=O)Nc1ccc(F)c(C(=O)c2c[nH]c3ncc(-c4ccc(O)cc4)cc23)c1F [P-2198, Propane-1-sulfonic acid {2,4-difluoro-3-[5-(4-hydroxy-phenyl)-1H-pyrrolo[2,3-b]pyridine-3-carbonyl]-phenyl}-amide]
≥ 5.00: [1] | [2] | [8] | [6]

CCN(CC)S(=O)(=O)Nc1ccc(F)c(C(=O)c2c[nH]c3nccc(OC)c23)c1F [P-2378, N,N-diethylamino-sulfonic acid [2,4-difluoro-3-(4-methoxy-1H-pyrrolo[2,3-b]pyridine-3-carbonyl)-phenyl]-amide]
≥ 5.00: [2] | [3] | [5] | [6]

O=C(c1c(F)ccc(NS(=O)(=O)C2CCCC2)c1F)c1c[nH]c2ncc(Cl)cc12 [P-2358, Cyclopentanesulfonic acid [3-(5-chloro-1H-pyrrolo[2,3-b]pyridine-3-carbonyl)-2,4-difluoro-phenyl]-amide]
not listed: [8] | [9] | [10]
≥ 5.00: all other assays above

CC(C)CS(=O)(=O)Nc1ccc(F)c(C(=O)c2c[nH]c3ncc(C#N)cc23)c1F [P-2307, 2-Methyl-propane-1-sulfonic acid [3-(5-cyano-1H-pyrrolo[2,3-b]pyridine-3-carbonyl)-2,4-difluoro-phenyl]-amide]
≥ 5.00: [1] | [2] | [4] | [6] | [7]

CCCS(=O)(=O)Nc1ccc(F)c(C(=O)c2c[nH]c3ncc(-c4ccc(OCCCN5CCOCC5)nc4)cc23)c1F [P-2236, Propane-1-sulfonic acid (2,4-difluoro-3-{5-[6-(3-morpholin-4-yl-propoxy)-pyridin-3-yl]-1H-pyrrolo[2,3-b]pyridine-3-carbonyl}-phenyl)-amide]
not listed: [6]
≥ 5.00: all other assays above
